Where a SMILES comes first, the peptide text is derived from it. Where no end group is shown, it is not given here. [ ]: non-standard residue; d: D form. βAla = NCCC(=O)O
What was measured:
[1] = Potentiometric titration of peptides: protonation constants; format: physicochemical; details: protonation constant, potentiometry, 1 mM peptide, error on last digit in parentheses; for log β H2L / log β HL / log β H3L: 25 °C, I=0.1 (KNO3)
Experimental: (§1) Key factors for the investigation of the biological activity of metal complexes are the complex stability and the detection of the active species at a physiological pH value of 7.4.[27] Thus, potentiometric titration experiments of peptides a–g (b) alone and in the presence of CuCl2 (logarithmic protonation (log β) and protonation‐corrected Cu(II) binding constants (log *K)) and pH‐metric UV/VIS and CD spectroscopic measurements of 1–7 (2 [26]) were carried out (S‐5).
(§2) S-5 Protonation and complex stability constants
(§3) All bioanalytical experiments (DNA cleavage, DNA binding and ROS detection studies) and cell studies (cytotoxicity and cellular uptake) were carried out at pH 7.4. To characterize the speciation of the ATCUN metallopeptides at this pH, potentiometric titrations in combination with UV/VIS and CD spectroscopy were carried out for 1 and 3-7.
(§4) S-5.1 Potentiometry, UV/VIS and circular dichroism (CD) spectroscopy […]
(§5) Potentiometric titrations were performed on a 907 Titrando Automatic Titrator (Metrohm) using a Biotrode combined glass electrode (Metrohm), calibrated daily by nitric acid titrations with the use of standardized 100 mM NaOH (carbon dioxide-free) as a […]
Stock solution preparation: […]
Samples (1.5 mL volume, 1 mM peptide) were prepared in 4 mM HNO3/96 mM KNO3 solution. To calculate ligand (peptide) concentrations and their protonation constants, at least three consecutive potentiometric titrations were performed. […]
The pH range for all potentiometric
All ligand and complex titrations were performed under argon at 25 °C. The data was analyzed using the SUPERQUAD and HYPERQUAD programs. […]
(§6) Table S5. Logarithmic protonation and Cu(II) binding constants (log β and pK) of peptides a-g (b not measured), determined by potentiometry at 25 °C and I=0.1 (KNO3), and competitivity index (CI) values calculated at pH 7.4 for 1 mM Cu(II) and peptides based on respective stability constants.
(§7) Statistical errors on the last digits of log β values, provided by HYPERQUAD, are given in parentheses. […]
(§8) log β pK log β pK log β pK log β pK log β pK log β pK
CuH3L - - - - - - - - - - […]
(§9) For log *K4N, the higher the number (less negative value) the higher stability of Cu(II) complexes (only relative meaning – no interpretation of concentrations of species possible).
For CI7.4, the higher the number the higher the stability. CI is the affinity constant for the imaginary CuZ complex which is equivalent in strength to the probed complex/set of complexes. The advantage of CI is that its unit is M-1, and can be compared with log K values for real complexes.

[2] = Potentiometric titration of peptides with CuCl2: Cu(II) binding constants and competitivity index at pH 7.4; format: physicochemical; details: 25 °C, I=0.1 (KNO3); for CI7.4 (competitivity index, log K CuZ): calculated at pH 7.4 for 1 mM Cu(II), peptide L and virtual competitive ligand Z from potentiometric stability constants; for log *K4N (protonation-corrected stability constant of Cu(II) 4N complex): log β{CuHn-4L} – log β{HnL}; for log β CuH-2L / log β CuH-3L / log β CuL / log β CuH-1L / log β CuHL: 1 mM peptide, Cu:peptide 1:1, 1:2, 1:3
Experimental: as §1, §2, §3, §4, §5
Stock solution preparation:
Stock solutions of peptides a and c–g for UV/VIS and CD experiments were prepared by dissolving given amounts of peptides in carbon dioxide-free Milli-Q® water.
Samples (1.5 mL volume, 1 mM peptide) were prepared in 4 mM HNO3/96 mM KNO3 solution. To calculate ligand (peptide) concentrations and their protonation constants, at least three consecutive potentiometric titrations were performed.
Three samples (1.5 mL) of 1 mM peptide and CuCl2 with Cu : peptide ratios of 1:1, 1:2 and 1:3 were prepared in 4 mM HNO3/96 mM KNO3. Each sample was titrated separately using a standardized 100 mM NaOH solution. The pH range for all potentiometric […]
All ligand and complex titrations were performed under argon at 25 °C. The data was analyzed using the SUPERQUAD and HYPERQUAD programs.
For the determination of Cu(II) stability constants, peptides a and c–g UV/VIS spectra were recorded in a range of 250–900 nm with a scan resolution of 1 nm, and a scan speed of 0.5 s/nm on a Lambda 950 UV/VIS/NIR spectrophotometer (PerkinElmer). The samples of 1 mM peptide/0.8 mM CuCl2 were prepared in 1 cm path length quartz cuvettes (Hellma) and titrated with small amounts of concentrated NaOH solution. Usually the pH-metric titration spanned from pH 2.9 to pH 12.5. […]
as §6, §7, §8
CuH3L - - - - - - - - - -
CI: Competitivity index calculated for pH 7.4 and peptide L, Cu(II) and Z concentrations of 0.001 M. CI is log KCuZ fulfilling the condition Σijk([CuiHjLk]=[CuZ].3 log *K4N is a protonation-corrected stability constant allowing to compare peptides with different protonation states forming the same type of complexes In general log*KxN, where x stand for number of coordinated nitrogens can be described by log *KxN = log β{CuHn-xL} – log β{HnL} HnL stands for the protonation of coordinating histidine (in position 3 from N-terminus in case of ATCUN motifs) […]
Peptides can be compared easily between each other using both protonation-corrected stability constant (log *K4N) and Competitivity Index at pH 7.4 (CI7.4):
as §9
For CI7.4, the higher the number the higher the stability. […]

[3] = potentiometry, error on last digit in parentheses

NCC(=O)NCCC(=O)N[C@@H](Cc1c[nH]cn1)C(=O)NCC(=O)N[C@@H](CO)C(=O)N[C@@H](CO)C(N)=O [Peptide c] (H-G[βAla]HGSS-NH2)
log β H2L [1]: 14.266(3)
log β HL [1]: 8.001(2)
pK CuH-2L ([2]; Cu(II) species, potentiometry): 5.65
pK CuH-3L ([2]; Cu(II) species, potentiometry): 10.4
CI7.4 (competitivity index, log K CuZ) [2]: 9.915
log *K4N (protonation-corrected stability constant of Cu(II) 4N complex) ([2]; potentiometry): -18.426
log β CuH-2L [2, 3]: -4.160(5)
log β CuH-3L [2, 3]: -14.560(8)
log β CuL [2, 3]: 7.137(5)

NCCCC[C@H](NC(=O)[C@H](Cc1c[nH]cn1)NC(=O)CCNC(=O)[C@@H](N)CCCCN)C(=O)N[C@@H](CO)C(=O)N[C@@H](CO)C(N)=O [d] (H-K[βAla]HKSS-NH2)
log β H4L ([1]; 4 mM HNO3/96 mM KNO3, 25 °C, I=0.1, argon, at least three titrations): 33.875(4)
log β H2L [1]: 20.563(2)
log β H3L [1]: 27.860(3)
log β HL [1]: 10.656(3)
pK CuH-1L ([2]; Cu(II) species, potentiometry): 10.00
pK CuH-2L ([2]; Cu(II) species, potentiometry): 10.41
pK CuL ([2]; Cu(II) species, potentiometry): 5.13
CI7.4 (competitivity index, log K CuZ) [2]: 10.31
log *K4N (protonation-corrected stability constant of Cu(II) 4N complex) ([2]; potentiometry): -17.537
log β CuH-1L [2, 3]: 6.337(8)
log β CuH-2L [2, 3]: -4.068(6)
log β CuL [2, 3]: 16.338(4)
log β CuH2L ([2]; potentiometry, 4 mM HNO3/96 mM KNO3, 1 mM peptide, Cu:peptide 1:1, 1:2, 1:3, pH 2.7-11.6, argon, error on last digit in parentheses): 26.604(9)

NC(=O)[C@H](CO)NC(=O)[C@H](CO)NC(=O)[C@H](Cc1c[nH]c2ccccc12)NC(=O)[C@H](Cc1c[nH]cn1)NC(=O)CCNC(=O)[C@@H](N)Cc1c[nH]c2ccccc12 [e] (H-W[βAla]HWSS-NH2)
log β H2L [1]: 13.700(3)
log β HL [1]: 7.584(3)
pK CuH-2L ([2]; Cu(II) species, potentiometry): 4.92
pK CuH-3L ([2]; Cu(II) species, potentiometry): 11.58
CI7.4 (competitivity index, log K CuZ) [2]: 11.28
log *K4N (protonation-corrected stability constant of Cu(II) 4N complex) ([2]; potentiometry): -16.804
log β CuH-2L [2, 3]: -3.104(3)
log β CuH-3L [2, 3]: -14.683(9)
log β CuL [2, 3]: 6.743(7)

NCCCC[C@H](N)C(=O)NCCC(=O)N[C@@H](Cc1c[nH]cn1)C(=O)N[C@@H](Cc1c[nH]c2ccccc12)C(=O)N[C@@H](CO)C(=O)N[C@@H](CO)C(N)=O [f] (H-K[βAla]HWSS-NH2)
log β H2L [1]: 17.632(4)
log β H3L [1]: 23.715(5)
log β HL [1]: 10.262(3)
pK CuH-1L ([2]; Cu(II) species, potentiometry): 5.06
pK CuH-2L ([2]; Cu(II) species, potentiometry): 10.12
pK CuH-3L ([2]; Cu(II) species, potentiometry): 11.17
CI7.4 (competitivity index, log K CuZ) [2]: 10.52
log *K4N (protonation-corrected stability constant of Cu(II) 4N complex) ([2]; potentiometry): -17.435
log β CuH-1L [2, 3]: 6.280(3)
log β CuH-2L [2, 3]: -3.840(7)
log β CuH-3L [2, 3]: -15.007(8)
log β CuHL [2, 3]: 16.406(9)

NCCCC[C@H](NC(=O)[C@H](Cc1c[nH]cn1)NC(=O)CCNC(=O)[C@@H](N)Cc1c[nH]c2ccccc12)C(=O)N[C@@H](CO)C(=O)N[C@@H](CO)C(N)=O [g] (H-W[βAla]HKSS-NH2)
log β H2L [1]: 17.755(5)
log β H3L [1]: 23.846(5)
log β HL [1]: 10.255(3)
pK CuH-1L ([2]; Cu(II) species, potentiometry): 4.82
pK CuH-2L ([2]; Cu(II) species, potentiometry): 10.10
CI7.4 (competitivity index, log K CuZ) [2]: 11.29
log *K4N (protonation-corrected stability constant of Cu(II) 4N complex) ([2]; potentiometry): -16.738
log β CuH-1L [2, 3]: 7.108(5)
log β CuH-2L [2, 3]: -2.987(9)
log β CuHL [2, 3]: 16.75(1)

GGHGSS-NH2 [a]
log β H2L [1]: 14.160(2)
log β HL [1]: 7.853(1)
pK CuH-3L ([2]; Cu(II) species, potentiometry): 11.79
CI7.4 (competitivity index, log K CuZ) [2]: 13.61
log *K4N (protonation-corrected stability constant of Cu(II) 4N complex) ([2]; potentiometry): -14.747
log β CuH-2L [2, 3]: -0.587(5)
log β CuH-3L [2, 3]: -12.38(2)
